From article PMC10192568, “Comparison of pharmacokinetic profiles of seven major bioactive components in normal and non-alcoholic fatty liver disease (NAFLD) rats after oral administration of Ling-Gui-Zhu-Gan decoction by UPLC-MS/MS” (Frontiers in Pharmacology, 2023)
Read-outs that look alike come from different tables or passages of the source.

Legend:
[1] = Stability of the seven components in rat plasma QC samples; type: physicochemical; conditions: n = 6; for Stability during 24 h at 4°C, RE: auto sampler
Protocol: Stability refers to the ability of the components to retain their chemical properties in the matrix. To analyze the stability of all components in the plasma, six replicates of QC samples at three concentrations were hereby prepared under each condition. The stability of the QC samples at three concentrations was analyzed under different storage conditions: −80°C for 30 days, after three freeze–thaw cycles, and 24 h in an auto sampler at 4°C.

[2] = Pharmacokinetic study of LGZGD components in plasma of normal and NAFLD rats after oral administration (UPLC-MS/MS); type: in vivo, Male Sprague–Dawley rats; conditions: for AUC0-∞ value decreased / C max value decreased: NAFLD rats compared with normal rats; for AUC0-∞ value decreased / C max value decreased / MRT0-t prolonged / MRT decreased: oral LGZGD; for MRT0-t prolonged / MRT decreased: NAFLD rats compared with the normal group; for AUC(0-inf) / AUC(0-t) / Cmax / Tmax / half-life / MRT last: Sprague-Dawley, rat, plasma, male SD rats, oral LGZGD extract 23 g/kg, mean ± SD, n = 6; for MRT last: read-out: MRT0-t
Protocol: Male Sprague–Dawley rats, weighing 200–220 g, SPF grade, were purchased from Shanghai Sippr-BK laboratory animal Co. Ltd. (Shanghai, China) and raised in the Laboratory Animal Center of Shanghai University of Traditional Chinese Medicine. The rats were kept in an environmentally controlled condition: on a 12:12 h light–dark cycle (lights on at 7:00 a.m.) with regulated temperature and humidity, at a temperature of 22°C–24°C and a relative humidity of 60–65%. In the experiment, the rats in the normal group were fed a certified standard rat diet and tap water, while those in the model group were fed a high-fat diet for 8 weeks to construct the NAFLD model (high-fat diet: 2% cholesterol, 10% lard, 0.1% sodium cholate, 10% yolk powder, and 77.9% normal diet). The animal experiment program was approved by the Animal Committee of Shanghai University of Traditional Chinese Medicine (License No.: PZSHUTCM201016001).
An Agilent 1290 UPLC system was combined with an Agilent 6460 series MS/MS system (Agilent Technologies, Santa Clara, CA, United States) to quantify the analytes in the ESI-positive ionization mode. The mass spectrum conditions were as follows: a capillary voltage of 4,000 V; a gas flow rate of 10 L/min; a nebulizer of 30 psi; a gas temperature of 350°C; and a Delta EMV(+) of 200 V. Five microliters of the samples was injected into an Agilent SB-C18 column (2.1 mm × 50 mm, 1.8 μm particles). The analytes were separated using the gradient elution method, and the mobile phase was composed of water (0.05% V/V formic acid) (A) and acetonitrile (B) at a flow rate of 0.4 mL/min (0–1 min, 10–10% B; 1–5 min, 10–90% B; 5–7 min, 90–90% B; and 7–7.1 min, B 90–10%; rebalance for 2 min).
A plasma sample of 50 µL was placed in a 1.5 mL centrifuge tube with 10 µL of schisandrin (IS) solution (50 ng/mL) and mixed for 5 min. The samples were successively extracted with 500 µL of ethyl acetate and treated with 250 µL of methanol, which were then mixed for 5 min and centrifuged at 4°C for 10 min (at 18,000 rpm). All the supernatant was absorbed into another 1.5 mL centrifuge tube, dried under a gentle stream of nitrogen at 37°C, and then added with 50 µL of 50% methanol for reconstruction. After being centrifuged at 4°C for 10 min (at 18,000 rpm), 5 µL of the supernatant was extracted and injected into a chromatographic column for analysis, and the chromatograms were recorded.
The rats were randomly divided into the normal group and the model group. According to the preliminary experiment, the dose was adjusted to about eight times the normal dose ([Gu, 2020]; [Li et al., 2023]). […] The animal research program was approved by the Animal Committee of Shanghai University of Traditional Chinese Medicine. At 0, 0.083, 0.25, 0.5, 0.75, 1, 2, 4, 6, 8, 10, 12, 24, and 48 h after dosing, 150 µL blood samples were collected from the rats' orbital venous plexus into centrifuge tubes containing 10 IU of sodium heparin. After being centrifuged at 5,000 rpm (4°C) for 10 min, the plasma was transferred to 1.5 mL polypropylene tubes and stored at −80°C until the plasma samples were analyzed.
Important pharmacokinetic parameters, which included the maximum plasma concentration (C max), time to maximum concentration (T max), half-life (t 1/2), area under the curve (AUC0-t), and total area under the curve (AUC0-∞), were hereby calculated using the DAS 3.2.8 software. Meanwhile, the pharmacokinetic data of the normal and model rats were compared using the SPSS software (version 21.0). Besides, Spearman rank bivariate correlation coefficient was used to determine the correlation between AUC values and UGT1A1 and nine other transporters. All the calculated data were expressed as mean ± SD. When p < 0.05, the difference was considered significant and statistically significant; and when p < 0.01 or <0.001, the difference was considered very significant.

[3] = male, po, 23 g/kg, Model (NAFLD) group
[4] = male, po, 23 g/kg, Normal group

SMILES	Stability during 24 h at 4°C, RE ([1]; high QC level) [%]	Stability during 24 h at 4°C, RE ([1]; low QC level) [%]	Stability during 24 h at 4°C, RE ([1]; medium QC level) [%]	Three freeze–thaw cycles, RE ([1]; high QC level) [%]	−80°C for 30 days, RE ([1]; high QC level) [%]	Three freeze–thaw cycles, RE ([1]; low QC level) [%]	−80°C for 30 days, RE ([1]; low QC level) [%]	Three freeze–thaw cycles, RE ([1]; medium QC level) [%]	−80°C for 30 days, RE ([1]; medium QC level) [%]	AUC0-∞ value decreased [2] [%]	C max value decreased [2] [%]	AUC(0-inf) [2, 3] [ng·h/mL]	AUC(0-t) [2, 3] [ng·h/mL]	Cmax [2, 3] [ng/mL]	half-life [2, 3] [h]	MRT last [2, 3] [h]	AUC(0-inf) [2, 4] [ng·h/mL]	AUC(0-t) [2, 4] [ng·h/mL]	Cmax [2, 4] [ng/mL]	half-life [2, 4] [h]	other results
O=C(O)/C=C/c1ccccc1 [Cinnamic acid, cinnamic acid]	−3.7	8.4	13.9	−11.1	−2.6	−0.4	−8.0	0.7	3.6	58.1	38.3	4410 ± 1420	4330 ± 1330	1190 ± 352	6.6 ± 3.5	6.2 ± 1.8	10500 ± 1900	10100 ± 1770	1930 ± 484	12.8 ± 3.6	Tmax [2, 3]: 0.6 ± 0.1 h; Tmax [2, 4]: 0.6 ± 0.1 h; MRT last [2, 4]: 8.2 ± 1.3 h
C=C(CC[C@@H](C(=O)O)[C@H]1[C@H](O)C[C@@]2(C)C3=CC[C@H]4C(C)(C)[C@@H](O)CC[C@]4(C)C3=CC[C@]12C)C(C)C [Dehydrotumulosic acid, dehydrotumulosic acid]	−2.3	3.8	1.6	5.5	3.0	−12.8	3.2	−4.3	10.2	75.1	62.4	43.5 ± 12	43.4 ± 12	3.8 ± 0.6	5 ± 1.8	10.4 ± 2.2	175 ± 37.2	142 ± 15.8	10.1 ± 3	19 ± 12.2	MRT decreased [2]: 27.8%; Tmax [2, 3]: 1.8 ± 1.6 h; Tmax [2, 4]: 4 ± 1.8 h; MRT last [2, 4]: 14.4 ± 2.7 h
O=C(/C=C/c1ccc(O[C@@H]2O[C@H](CO)[C@@H](O)[C@H](O)[C@H]2O)cc1)c1ccc(O)cc1O [Isoliquiritin, isoliquiritin]	−12.7	1.3	11.0	3.9	4.0	−6.8	−1.1	−3.0	−2.1	65.8	31.1	56.9 ± 10.8	51.9 ± 7.8	4.2 ± 0.8	13.1 ± 7.5	15.5 ± 1.8	166 ± 10.5	108 ± 21.2	6.1 ± 1.8	9.2 ± 4.4	MRT decreased [2]: 21.7%; Tmax ([2]; Normal group): 0.6 ± 0.1 h; MRT last [2, 4]: 19.8 ± 1.7 h

Now from value to compound, other results behind:

Stability during 24 h at 4°C, RE ([1]; high QC level) [%]	Stability during 24 h at 4°C, RE ([1]; low QC level) [%]	Stability during 24 h at 4°C, RE ([1]; medium QC level) [%]	Three freeze–thaw cycles, RE ([1]; high QC level) [%]	−80°C for 30 days, RE ([1]; high QC level) [%]	Three freeze–thaw cycles, RE ([1]; low QC level) [%]	−80°C for 30 days, RE ([1]; low QC level) [%]	Three freeze–thaw cycles, RE ([1]; medium QC level) [%]	−80°C for 30 days, RE ([1]; medium QC level) [%]	AUC0-∞ value decreased [2] [%]	C max value decreased [2] [%]	AUC(0-inf) [2, 3] [ng·h/mL]	AUC(0-t) [2, 3] [ng·h/mL]	Cmax [2, 3] [ng/mL]	half-life [2, 3] [h]	MRT last [2, 3] [h]	AUC(0-inf) [2, 4] [ng·h/mL]	AUC(0-t) [2, 4] [ng·h/mL]	Cmax [2, 4] [ng/mL]	half-life [2, 4] [h]	SMILES	other results
−4.0	6.4	5.2	−3.8	14.1	13.3	−4.4	−9.5	−3.5	70.8	35.2	166 ± 45.1	117 ± 16.1	7.9 ± 1.3	18.3 ± 1.3	19.3 ± 2.9	568 ± 235	352 ± 21.5	12.2 ± 3.4	10.2 ± 4.4	C=C1CCC[C@]2(C)C[C@]3(O)OC(=O)C(C)=C3C[C@@H]12 [Atractylenolide III, atractylenolide III]	MRT0-t prolonged [2]: 31.3%; Tmax [2, 3]: 0.6 ± 0.1 h; Tmax [2, 4]: 0.7 ± 0.1 h; MRT last [2, 4]: 14.7 ± 1.5 h
−8.9	5.2	6.7	2.2	2.6	−0.4	−5.2	−7.7	−4.9	50.6	65.0	26200 ± 14400	25600 ± 14800	1650 ± 1170	8.9 ± 4.5	15.6 ± 2.3	89600 ± 28600	88200 ± 27200	7280 ± 2080	6 ± 2.1	CC1(C)[C@@H](O)CC[C@]2(C)[C@H]3C(=O)C=C4[C@@H]5C[C@@](C)(C(=O)O)CC[C@]5(C)CC[C@@]4(C)[C@]3(C)CC[C@@H]12 [Glycyrrhetinic acid, glycyrrhetinic acid]	MRT0-t prolonged [2]: 44.4%; Tmax [2, 3]: 13.2 ± 6.3 h; Tmax [2, 4]: 9.3 ± 1.6 h; MRT last [2, 4]: 10.8 ± 1.1 h
−3.3	−1.6	−5.6	9.7	2.7	−5.9	−1.0	−3.7	1.7	70.8	77.4	40800 ± 25000	40700 ± 25100	2240 ± 1200	5.4 ± 1.4	16 ± 8	82700 ± 10000	81000 ± 10500	6420 ± 2240	6.3 ± 3	CC1(C)[C@@H](O[C@H]2O[C@H](C(=O)O)[C@@H](O)[C@H](O)[C@H]2O[C@@H]2O[C@H](C(=O)O)[C@@H](O)[C@H](O)[C@H]2O)CC[C@]2(C)[C@H]3C(=O)C=C4[C@@H]5C[C@@](C)(C(=O)O)CC[C@]5(C)CC[C@@]4(C)[C@]3(C)CC[C@@H]12 [Glycyrrhizic acid, glycyrrhizic acid]	Tmax [2, 3]: 8.1 ± 4.9 h; Tmax [2, 4]: 10.4 ± 1.7 h; MRT last [2, 4]: 13.7 ± 3.3 h
